The values below come from patent US20250236616A1, “IMMUNOMODULATING AZALIDES” (Zoetis Services LLC, priority 2021, published 2025).

Type in all cases: cell-based
One test relates to IL-1β. Description: Whole bovine blood assay, LPS-induced IL-1β (inhibition / overstimulation). The note with it: drug concentration giving overstimulation (OS) of LPS-induced IL-1β, top concentration 250 μM. The method, then:
Whole Blood Assay-Fresh whole bovine blood samples were collected into heparinized vacutainer tubes. Assay plates were prepared with 25 μL of drug diluted in PBS at varying concentration in 96 round bottom wells, then 225 μL of blood was added and plates incubated at 37° C. for 4 hours. Cells were stimulated with LPS (or PBS for controls) by adding 25 μL to the plates at a final concentration of 1 μg/mL and incubated at 37° C. for 18 hours. To collect plasma, plates were centrifuged at 2,000×g for 10 minutes and 100 μL of supernatant was transferred to a 96 well polypropylene plate that was sealed and stored at −80° C. Samples were assayed for cytokines using the Meso Scale Discovery (MSD) platform (described below). This same MSD platform was used to assess cytokines in the plasma collected directly from drug treated animals.
Cytokine Detection—An MSD U-Plex cytokine assay was developed following the MSD U-Plex protocol guide and included biotinylated capture antibodies against: bovine Interleukin (IL)-1β (Biorad), bovine IL-6 (R&D Systems) and bovine tumor necrosis factor (TNF)-α (R&D Systems). The anti-IL-1β antibody was biotinylated using EZ-Link Sulfo-NHS-Biotin (Thermo Scientific) at a challenge ratio of 1:20 according to manufacturer instructions. Assay calibrators (Kingfisher) were diluted to a concentration of […] in control lithium heparin plasma, followed by 4-fold serial dilutions into plasma. The detection antibodies were sulfo-tagged following the MSD quick guide conjugation protocol using a challenge ratio of 1:20. Antibodies were used at the following concentrations: anti-IL-1β at 1 μg/mL, anti-IL-6 at 1 μg/mL and anti-TNF-α at 0.5 μg/mL. Cytokines were quantified according to manufacturer's instructions using a chemiluminescent readout. In brief, 0.5 mL of all biotinylated antibodies were diluted to 10 μg/mL with Diluent 100 and paired to their respective linkers by adding 750 μL of supplied Linker solution and incubated for 30 minutes followed by addition of Stop solution for another 30 minutes. The linked antibodies were then diluted 10-fold into Stop solution. Plates were coated by adding 50 μL of antibody solutions per well and incubated covered and shaking for 1 hour at room temperature. Plates were washed three times with PBS/Tween20 prior to samples or standards being added at 30 μL per well and incubated as above. Plates were washed three times before detection antibodies were added along with 2% goat and rabbit serum to block and incubated same as above. Plates were washed a further three times before addition of 150 μL 2X Read buffer and read immediately on the SI6000 instrument (MSD). For soluble protein levels, a BCA protein kit (Thermofisher) was used. The cytokine concentrations (pg/mL) were normalized to the total protein levels for each sample. [Bassel et. al., BMC Veterinary Research (2020) 16:168]
Therefore, a fresh whole bovine blood assay was developed with LPS as a stimulant (TLR-4 agonist) and with IL-1β and TNF-α as the read-out. Compounds of the invention were evaluated against a positive control for their ability to inhibit LPS-induced IL-1β and TNF-α as an overall evaluation of relative potency and modulation of target pathways.
For M9, the top dose of 500 μM was not high enough to determine an overstimulation of IL-1 B which was recorded as not applicable (n/a). The enhanced response indicates increased concentration of IL-1β cytokine at the drug concentration indicated. This is generally observed when compounds are out of range (high concentration) and stimulate a cellular toxicity signal. Further data supporting this hypothesis includes murine studies using a P. multocida infection in mice.
TNFα is a cell signaling protein, cytokine, that plays a key role in both acute and chronic inflammation. […]

The next test deals with IL-6. Description: Whole bovine blood assay, LPS-induced IL-6. Conditions: fresh whole bovine blood, LPS stimulant; top drug concentration 250 μM.
The next test deals with TNF-α. The test is described as follows: Whole bovine blood assay, LPS-induced TNF-α. The note with it: fresh whole bovine blood, LPS stimulant; top drug concentration 250 μM. The gist of the method: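 Fresh heparinized bovine whole blood was preincubated with compound 4 h at 37 °C, then stimulated with LPS (final 1 μg/mL) for 18 h at 37 °C. Plasma TNF-α was quantified by MSD U-Plex chemiluminescent immunoassay, normalized to total protein (BCA), and IC50 taken for LPS-induced TNF-α inhibition.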

Consider `CC[C@H]1OC(=O)[C@H](C)[C@@H](O)[C@H](C)[C@@H](O[C@@H]2O[C@H](C)C[C@H](N(C)S(=O)(=O)C3CC3)[C@H]2Oc2ccccc2)[C@](C)(O)C[C@@H](C)CN[C@H](C)[C@@H](O)[C@]1(C)O` [Example A-32], for which, in the test with IL-1β, the minimal effective concentration (commonly the smallest amount tested that counted as effective) came out at 100 µM. In the test with IL-6, half-maximal inhibition (IC50) required 167 µM.
On the same counts, the results for `CC[C@H]1OC(=O)[C@H](C)[C@@H](O[C@H]2C[C@@](C)(OC)[C@](O)(CNCCC3CCOCC3)[C@H](C)O2)[C@H](C)[C@@H](O[C@@H]2O[C@H](C)C[C@H](N(C)S(=O)(=O)c3ccc(Cl)cc3)[C@H]2O)[C@](C)(O)C[C@@H](C)CN[C@H](C)[C@@H](O)[C@]1(C)O` [Example B-34] are 6 µM and 20 µM.
Taken in the same sequence, the figures for `CCCNC[C@]1(O)[C@H](C)O[C@@H](O[C@H]2[C@H](C)[C@@H](O[C@@H]3O[C@H](C)C[C@H](N(C)S(=O)(=O)c4cnn(-c5ccc(C(F)(F)F)cn5)c4)[C@H]3Oc3ccc(OC)cc3)[C@](C)(O)C[C@@H](C)CN[C@H](C)[C@@H](O)[C@](C)(O)[C@@H](CC)OC(=O)[C@@H]2C)C[C@@]1(C)OC` [Example B-123] were 6 µM and 4 µM.
In the case of `CCCNC[C@]1(O)[C@H](C)O[C@@H](O[C@H]2[C@H](C)[C@@H](O[C@@H]3O[C@H](C)C[C@H](N(C)S(=O)(=O)c4ccccc4)[C@H]3O)[C@](C)(O)C[C@@H](C)CN[C@H](C)[C@@H](O)[C@](C)(O)[C@@H](CC)OC(=O)[C@@H]2C)C[C@@]1(C)OC` [Example B-7], the midpoint of inhibition in the test on TNF-α, the IC50, lay at 25 µM. Moreover, the minimal effective concentration in the test on IL-1β was 40 µM.
On the same counts, the results for `CCCNC[C@]1(O)[C@H](C)O[C@@H](O[C@H]2[C@H](C)[C@@H](O[C@@H]3O[C@H](C)C[C@H](N(C)S(N)(=O)=O)[C@H]3O)[C@](C)(O)C[C@@H](C)CN(CCC)[C@H](C)[C@@H](O)[C@](C)(O)[C@@H](CC)OC(=O)[C@@H]2C)C[C@@]1(C)OC` [Example B-158] are 102 µM and above 250 µM.
On the same counts, the results for `CC[C@H]1OC(=O)[C@H](C)[C@@H](O)[C@H](C)[C@@H](O[C@@H]2O[C@H](C)C[C@H](N(C)S(=O)(=O)Nc3ccccc3)[C@H]2Oc2ccc(OC)cc2)[C@](C)(O)C[C@@H](C)CN[C@H](C)[C@@H](O)[C@]1(C)O` [Example A-36] are 10 µM and 4 µM.
Consider `CC[C@H]1OC(=O)[C@H](C)[C@@H](O[C@H]2C[C@@](C)(OC)[C@](O)(CNCCOC(F)(F)F)[C@H](C)O2)[C@H](C)[C@@H](O[C@@H]2O[C@H](C)C[C@H](N(C)S(=O)(=O)Nc3ccc(C(F)(F)F)cc3)[C@H]2O)[C@](C)(O)C[C@@H](C)CN[C@H](C)[C@@H](O)[C@]1(C)O` [Example B-129], for which the midpoint of inhibition with TNF-α, the IC50, lay at 10 µM. The minimal effective concentration with IL-1β was 2 µM.
For the compound `CC[C@H]1OC(=O)[C@H](C)[C@@H](O[C@H]2C[C@@](C)(OC)[C@](O)(CNCCS(C)(=O)=O)[C@H](C)O2)[C@H](C)[C@@H](O[C@@H]2O[C@H](C)C[C@H](N(C)S(=O)(=O)c3ccc(C(F)(F)F)cc3)[C@H]2O)[C@](C)(O)C[C@@H](C)CN[C@H](C)[C@@H](O)[C@]1(C)O` [Example B-126], half-maximal inhibition in the test with TNF-α (IC50) required 68 µM. For the same compound, the minimal effective concentration in the test on IL-1β is reported as 11 µM.
Taken in the same sequence, the figures for `CC[C@H]1OC(=O)[C@H](C)[C@@H](O[C@H]2C[C@@](C)(OC)[C@](O)(CNCCCN3CCCC3=O)[C@H](C)O2)[C@H](C)[C@@H](O[C@@H]2O[C@H](C)C[C@H](N(C)S(=O)(=O)Nc3ccc(C(F)(F)F)cc3)[C@H]2O)[C@](C)(O)C[C@@H](C)CN[C@H](C)[C@@H](O)[C@]1(C)O` [Example B-87] were 17 µM and 9 µM.
Taken in the same sequence, the figures for `CC[C@H]1OC(=O)[C@H](C)[C@@H](O[C@H]2C[C@@](C)(OC)[C@](O)(CNCCNC(C)=O)[C@H](C)O2)[C@H](C)[C@@H](O[C@@H]2O[C@H](C)C[C@H](N(C)S(=O)(=O)Nc3ccc(C(F)(F)F)cc3)[C@H]2O)[C@](C)(O)C[C@@H](C)CN[C@H](C)[C@@H](O)[C@]1(C)O` [Example B-81] were 22 µM and 15 µM.
On the same counts, the results for `CCCNC[C@]1(O)[C@H](C)O[C@@H](O[C@H]2[C@H](C)[C@@H](O[C@@H]3O[C@H](C)C[C@H](N(C)S(=O)(=O)c4cn(C)c(C)n4)[C@H]3O)[C@](C)(O)C[C@@H](C)CN[C@H](C)[C@@H](O)[C@](C)(O)[C@@H](CC)OC(=O)[C@@H]2C)C[C@@]1(C)OC` [Example B-5] are above 250 µM and above 250 µM.
On to `CCCNC[C@]1(O)[C@H](C)O[C@@H](O[C@H]2[C@H](C)[C@@H](O[C@@H]3O[C@H](C)C[C@H](N(C)S(=O)(=O)c4cn(C)cn4)[C@H]3O)[C@](C)(O)C[C@@H](C)CN[C@H](C)[C@@H](O)[C@](C)(O)[C@@H](CC)OC(=O)[C@@H]2C)C[C@@]1(C)OC` [Example B-16], for which the IC50 (commonly the concentration needed to halve the response being measured) in the test on TNF-α is above 250 µM. For the same compound, the minimal effective concentration in the test on IL-1β was above 250 µM.
Taken in the same sequence, the figures for `CC[C@H]1OC(=O)[C@H](C)[C@@H](O[C@H]2C[C@@](C)(OC)[C@](O)(CN3CCCCC3)[C@H](C)O2)[C@H](C)[C@@H](O[C@@H]2O[C@H](C)C[C@H](N(Cc3cccnc3)S(=O)(=O)Nc3ccc(C(F)(F)F)cc3)[C@H]2O)[C@](C)(O)C[C@@H](C)CN[C@H](C)[C@@H](O)[C@]1(C)O` [Example C-39] were 15 µM and 6 µM.
Taken in the same sequence, the figures for `CCCNC[C@]1(O)[C@H](C)O[C@@H](O[C@H]2[C@H](C)[C@@H](O[C@@H]3O[C@H](C)C[C@H](N(C)S(C)(=O)=O)[C@H]3O)[C@](C)(O)C[C@@H](C)CN[C@H](C)[C@@H](O)[C@](C)(O)[C@@H](CC)OC(=O)[C@@H]2C)C[C@@]1(C)OC` [Example B-59] were 150 µM and 57 µM.
On the same counts, the results for `CCCNC[C@]1(O)[C@H](C)O[C@@H](O[C@H]2[C@H](C)[C@@H](O[C@@H]3O[C@H](C)C[C@H](N(C)S(=O)(=O)c4cnc5ccsc5c4)[C@H]3O)[C@](C)(O)C[C@@H](C)CN[C@H](C)[C@@H](O)[C@](C)(O)[C@@H](CC)OC(=O)[C@@H]2C)C[C@@]1(C)OC` [Example B-9] are 55 µM and 40 µM.
As to `CC[C@H]1OC(=O)[C@H](C)[C@@H](O)[C@H](C)[C@@H](O[C@@H]2O[C@H](C)C[C@H](N(C)S(=O)(=O)c3ccccc3)[C@H]2Oc2ccc(F)c(C(F)(F)F)c2)[C@](C)(O)C[C@@H](C)CN(C)[C@H](C)[C@@H](O)[C@]1(C)O` [Example A-2], the midpoint of inhibition in the test on TNF-α, the IC50, lay at 28 µM. In addition, the minimal effective concentration with IL-1β was 40 µM.
On the same counts, the results for `CC[C@H]1OC(=O)[C@H](C)[C@@H](O)[C@H](C)[C@@H](O[C@H]2O[C@@H](C)C[C@@H](N(C)S(=O)(=O)Nc3ccccc3)[C@@H]2Oc2ccccc2)[C@](C)(O)C[C@@H](C)CN[C@H](C)[C@@H](O)[C@]1(C)O` [Example A-4] are 10 µM and 4 µM.
The compound `CCCNC[C@]1(O)[C@H](C)O[C@@H](O[C@H]2[C@H](C)[C@@H](O[C@@H]3O[C@H](C)C[C@H](N(C)S(=O)(=O)c4ccc(F)nc4)[C@H]3O)[C@](C)(O)C[C@@H](C)CN[C@H](C)[C@@H](O)[C@](C)(O)[C@@H](CC)OC(=O)[C@@H]2C)C[C@@]1(C)OC` [Example B-6] registered an IC50 with TNF-α of 24 µM. The same compound displayed a minimal effective concentration with IL-1β of 16 µM.
